# According to publication PMC8443589, “Modelling human liver fibrosis in the context of non-alcoholic steatohepatitis using a microphysiological system” (Communications Biology, 2021):
# Key:
# [1] = tested on: liver MPS NASH model (PHH, KC and HSC co-cultures); assay: Cue study: secreted cytokines and chemokines (Luminex) with varying NPC number and added cues (Fig 5a, 5b); type: cell-based, human; conditions: for EGF relative expression (z-transformation) / Eotaxin relative expression (z-transformation) / FGF-2 relative expression (z-transformation) / Fit-3L relative expression (z-transformation) / Fractalkine relative expression (z-transformation) / G-CSF relative expression (z-transformation) / GM-CSF relative expression (z-transformation) / GRO relative expression (z-transformation) / IFN-a2 relative expression (z-transformation) / IL-1RA relative expression (z-transformation) / IL-4 relative expression (z-transformation) / IL-6 relative expression (z-transformation) / IL-7 relative expression (z-transformation) / IL-8 relative expression (z-transformation) / IL-15 relative expression (z-transformation) / IP-10 relative expression (z-transformation) / MCP-1 relative expression (z-transformation) / MCP-3 relative expression (z-transformation) / MDC relative expression (z-transformation) / MIP-1a relative expression (z-transformation) / MIP-1b relative expression (z-transformation) / TNFa relative expression (z-transformation) / VEGF relative expression (z-transformation): Fat media + cue
# Text: There is only limited understanding of the pathogenic drivers of NASH and their interaction, principally due to a lack of translational models that are amenable to detailed molecular analysis[2],[34]. Here, a systems biology ‘cue-signal-analysis’ paradigm[35],[36] was utilised to produce large factorial datasets to enable the identification of molecular pathways of importance. […] To create varying set ups of the NASH microtissues we created hepatocyte microtissues in the MPS with high numbers of NPC (60,000 KC and HSC—equivalent to 10% of microtissue population) and low numbers of NPCs (6000 KC and HSC—equivalent to 1% of microtissue), representing physiological and non-physiological cell ratios respectively. Next, we took these different microtissues and cultured them in media with or without FFA. Finally, we supplemented the media with lipopolysaccharide (LPS), TGFβ, fructose or cholesterol either as single ‘cues’, in pairs or all together (Fig. 4a). ‘Cues’ were selected for clinical association with NASH. LPS, is a pleiotropic inflammatory molecule, it is proposed to reach the liver via the hepatic portal vein after release from the gastrointestinal tract, contributing to disease progression[37],[38]. TGFβ has been extensively studied in relation to fibrosis due to its regulation of genes controlling collagen and matrix-modifying enzymes. Fructose is a key substrate for de-novo lipogenesis, a process that has been identified as a key event in lipid accumulation within NAFLD patients. Finally, cholesterol accumulation has also been linked to NASH disease aetiology.
# Assessment of gene expression changes was supplemented by assessment of the secretome produced by NASH microtissues in the MPS after exposure to the various cues. Increased pro-inflammatory cytokine secretion is a defining characteristic in NASH patients, so we conducted a Luminex cytokine array covering 42 different biomarkers, cytokines and chemokines secreted into the culture media of the different microtissues at multiple time points. […]
# [2] = tested on: liver MPS NASH model (PHH, KC and HSC co-cultures); assay: Cue study: pro-fibrotic biomarkers TIMP-1, pro-collagen 1, fibronectin (Fig 5c); type: cell-based, human; conditions: fat medium + cue
# Text: Assessment of gene expression changes was supplemented by assessment of the secretome produced by NASH microtissues in the MPS after exposure to the various cues. Increased pro-inflammatory cytokine secretion is a defining characteristic in NASH patients, so we conducted a Luminex cytokine array covering 42 different biomarkers, cytokines and chemokines secreted into the culture media of the different microtissues at multiple time points. We consistently detected 27 out of the 42 biomarkers and observed that there was differential expression of cytokines and chemokines driven by the different cues applied to the micro-tissue (Fig. 5a, b). The LPS cue and the presence of higher NPC numbers were responsible for driving the largest increase in cytokine and chemokine release, with the largest increases in cytokines measured on day 14 (Fig. 5b). […] Similarly, to the cytokine production, these changes were not further enhanced by combining cues, as all the cue combinations containing TGFβ had the highest expression (Supp. Fig. 17c).
# Fig. 5 Systems biology interrogation of liver MPS NASH model to determine physiologically relevant cues that promote soluble biomarker changes to mimic advanced NASH disease state. PHH, KC and HSC co-cultures were cultured in the MPS platform under a variety of conditions for 14 days to test number of NPCs, presence of fat, fructose, cholesterol, LPS and TGFβ for effects on the soluble biomarker profile of the liver MPS NASH model. Expression of biomarkers, cytokines and chemokines were compared, all concentrations were normalised by Z-transformation to allow comparison and shown relative to mean for each marker (white = not detected). a Cytokine expression compared with varying levels of NPCs; b for the high NPC group in the presence of additional cues; c Expression of pro-fibrotic biomarkers with varying NPC content and with additional varying cues in high NPC condition (additional data in Supp. Fig. 17). d Graphical summary of the changes that occur in the NASH model in the presence of Fat and Fat + TGFβ. All data were generated from a minimum of three independent replicate samples per condition.
# The MPS LC12 plates consists of 12 individual bioreactors that contain pneumatically driven micro-pumps to recirculate cell culture medium through a collagen-coated scaffold. Cells were cultured using the protocol previously described[20],[21], but briefly, PHH were seeded at a density of 6 × 10^5 viable cells per well on the LC12 plates with each NPC population (KC and/or HSC) at a density of 6 × 10^4 viable cells per well. Each well contained a final volume of 1.6 mL of medium per well and maintained under a flow rate of 1.0 µL/s. Cells were seeded in Williams E medium containing primary hepatocyte thawing and plating supplements (Life Technologies, USA) and cultured initially under downward flow for 8 h before the flow was automatically reversed to upward flow for the next 16 h of culture. Microtissues were then cultured in either HEP-Lean or HEP-Fat medium, both media’s are proprietary to CN Bio Innovations Ltd. The HEP-Fat medium is a derivative of the HEP-LEAN medium and contains a mixture of saturated and unsaturated FFAs, as well as physiologically relevant quantities of insulin and sugars. Complete media changes were performed on all wells every 48–72 h. For certain experiments, the media was supplemented with additional additives from day 4 onwards: 1 ng/ml LPS (lipopolysaccharides from Escherichia coli O111:B4) (Sigma Aldrich, UK), 1 ng/ml recombinant TGF beta 1 protein (Abcam, UK); 500 µM Fructose (Sigma Aldrich, UK), 50 µg/ml Cholesterol (Sigma Aldrich, UK). […]
compound,measurement,setting,value
O=C(CO)[C@@H](O)[C@H](O)[C@H](O)CO [Fructose],EGF relative expression (z-transformation),[1]; Day 6,-1.038
same,Eotaxin relative expression (z-transformation),[1]; Day 6,-0.782
same,FGF-2 relative expression (z-transformation),[1]; Day 6,-1.187
same,Fit-3L relative expression (z-transformation),[1]; Day 6,-0.2857
same,Fractalkine relative expression (z-transformation),[1]; Day 6,-0.2691
same,G-CSF relative expression (z-transformation),[1]; Day 6,-0.36
same,GM-CSF relative expression (z-transformation),[1]; Day 6,-0.4175
same,GRO relative expression (z-transformation),[1]; Day 6,-0.4254
same,IFN-a2 relative expression (z-transformation),[1]; Day 6,0.2777
same,IL-1RA relative expression (z-transformation),[1]; Day 6,0.2038
same,IL-4 relative expression (z-transformation),[1]; Day 6,-1.323
same,IL-6 relative expression (z-transformation),[1]; Day 6,-0.4543
same,IL-7 relative expression (z-transformation),[1]; Day 6,-0.8373
same,IL-8 relative expression (z-transformation),[1]; Day 6,0.2742
same,IL-15 relative expression (z-transformation),[1]; Day 6,-0.4814
same,IP-10 relative expression (z-transformation),[1]; Day 6,-0.2708
same,MCP-1 relative expression (z-transformation),[1]; Day 6,0.3757
same,MCP-3 relative expression (z-transformation),[1]; Day 6,-0.2673
same,MDC relative expression (z-transformation),[1]; Day 6,1.214
same,MIP-1a relative expression (z-transformation),[1]; Day 6,0.03503
same,MIP-1b relative expression (z-transformation),[1]; Day 6,-0.1641
same,TNFa relative expression (z-transformation),[1]; Day 6,-0.2082
same,VEGF relative expression (z-transformation),[1]; Day 6,1.537
same,EGF relative expression (z-transformation),[1]; Day 11,-0.1015
same,Eotaxin relative expression (z-transformation),[1]; Day 11,0.09562
same,FGF-2 relative expression (z-transformation),[1]; Day 11,-0.4563
same,Fit-3L relative expression (z-transformation),[1]; Day 11,1.324
same,Fractalkine relative expression (z-transformation),[1]; Day 11,0.9874
same,G-CSF relative expression (z-transformation),[1]; Day 11,-1.298
same,GM-CSF relative expression (z-transformation),[1]; Day 11,-0.6
same,GRO relative expression (z-transformation),[1]; Day 11,-0.3142
same,IFN-a2 relative expression (z-transformation),[1]; Day 11,0.6908
same,IL-1RA relative expression (z-transformation),[1]; Day 11,0.879
same,IL-4 relative expression (z-transformation),[1]; Day 11,-0.3331
same,IL-6 relative expression (z-transformation),[1]; Day 11,-0.2984
same,IL-7 relative expression (z-transformation),[1]; Day 11,-0.3548
same,IL-8 relative expression (z-transformation),[1]; Day 11,-0.6705
same,IL-15 relative expression (z-transformation),[1]; Day 11,0.3314
same,IP-10 relative expression (z-transformation),[1]; Day 11,-0.257
same,MCP-1 relative expression (z-transformation),[1]; Day 11,0.4252
same,MCP-3 relative expression (z-transformation),[1]; Day 11,-0.08763
same,MDC relative expression (z-transformation),[1]; Day 11,0.03858
same,MIP-1a relative expression (z-transformation),[1]; Day 11,-0.4174
same,MIP-1b relative expression (z-transformation),[1]; Day 11,0.1119
same,TNFa relative expression (z-transformation),[1]; Day 11,-0.3492
same,VEGF relative expression (z-transformation),[1]; Day 11,-0.07553
same,EGF relative expression (z-transformation),[1]; Day 14,-0.09066
same,Eotaxin relative expression (z-transformation),[1]; Day 14,1.581
same,FGF-2 relative expression (z-transformation),[1]; Day 14,0.5869
same,Fit-3L relative expression (z-transformation),[1]; Day 14,1.267
same,Fractalkine relative expression (z-transformation),[1]; Day 14,0.9131
same,G-CSF relative expression (z-transformation),[1]; Day 14,0.4426
same,GM-CSF relative expression (z-transformation),[1]; Day 14,-0.06657
same,GRO relative expression (z-transformation),[1]; Day 14,0.04245
same,IFN-a2 relative expression (z-transformation),[1]; Day 14,2.403
same,IL-1RA relative expression (z-transformation),[1]; Day 14,1.114
same,IL-4 relative expression (z-transformation),[1]; Day 14,0.7104
same,IL-6 relative expression (z-transformation),[1]; Day 14,0.4182
same,IL-7 relative expression (z-transformation),[1]; Day 14,1.313
same,IL-8 relative expression (z-transformation),[1]; Day 14,0.7194
same,IL-15 relative expression (z-transformation),[1]; Day 14,1.407
same,IP-10 relative expression (z-transformation),[1]; Day 14,0.8479
same,MCP-1 relative expression (z-transformation),[1]; Day 14,2.011
same,MCP-3 relative expression (z-transformation),[1]; Day 14,1.298
same,MDC relative expression (z-transformation),[1]; Day 14,0.1904
same,MIP-1a relative expression (z-transformation),[1]; Day 14,0.03023
same,MIP-1b relative expression (z-transformation),[1]; Day 14,0.8239
same,TNFa relative expression (z-transformation),[1]; Day 14,0.4054
same,VEGF relative expression (z-transformation),[1]; Day 14,-1.095
same,IP-10 production,[1]; day 15,biggest increase
same,Fibronectin (Fold change in cytokine production compared to control),"[2]; Day 6, high NPC",1.389
same,Pro-collagen 1 (Fold change in cytokine production compared to control),"[2]; Day 6, high NPC",2.273
same,TIMP-1 (Fold change in cytokine production compared to control),"[2]; Day 6, high NPC",1.299
same,Fibronectin (Fold change in cytokine production compared to control),"[2]; Day 11, high NPC",0.7381
same,Pro-collagen 1 (Fold change in cytokine production compared to control),"[2]; Day 11, high NPC",1.299
same,TIMP-1 (Fold change in cytokine production compared to control),"[2]; Day 11, high NPC",0.1393
same,Fibronectin (Fold change in cytokine production compared to control),"[2]; Day 14, high NPC",0.7006
same,Pro-collagen 1 (Fold change in cytokine production compared to control),"[2]; Day 14, high NPC",0.7125
same,TIMP-1 (Fold change in cytokine production compared to control),"[2]; Day 14, high NPC",0.2326
